Measured values: patent publication US11091486B2, “Process for the preparation of pyrazolo[1,5-a]pyrimidines and salts thereof” (Array BioPharma Inc., priority 2016, dated 2021)
Converted amounts (≈) assume the structure as drawn. “Also recorded” adds a separate entry of the source. Where two headings read alike, the source gives them in different places.

Assays:
Format in all cases: physicochemical
[1] = 1-week stability tests (40° C./75% RH, 80° C., ambient light), XRPD and UPLC
From the text: Compound 1 (Form I) was subjected to various different environmental conditions to assess stability.

[2] = Thermodynamic solubility of prepared salts
Procedure: Thermodynamic solubility studies were carried out as follows: 10 mg of prepared salts were suspended in pH 1, 4.5, 6.8 and un-buffered water (300 μL). The pH of the slurries was measured and adjusted accordingly using either 0.2M HCl solution or 0.2M sodium hydroxide solution. The slurries were agitated for 24 hours at ambient temperature using an incubator shaker.

[3] = Hydration screen in acetone/water mixtures; conditions: 24 hr
Procedure: Hydration screen was carried out as follows: 10 mg of prepared salts were suspended in several acetone/water mixtures of various water activities (low: aw=0.281, medium: aw=0.776 and high: aw=0.919) and agitated at ambient temperatures for 24 hr. Any recovered solids were submitted for XRPD analysis to determine any changes to form.

[4] = Salt disproportionation studies; conditions: deionized water, 24 h at ambient temperature
Procedure: Salt disproportionation studies were carried out as follows: 20 mg of prepared salts were weighed into a vial and 0.5 mL of deionized water was added. The samples were then agitated for 24 h at ambient temperature. The pH of the samples was taken pre- and post-agitation. Any solids recovered were submitted for XRPD analysis to determine any changes to form.

[5] = Dynamic vapor sorption (DVS); conditions: for Hygroscopicity, mass uptake by DVS: at 90% RH; for Crystalline form by XRPD after exposure to DVS humidity conditions: post-DVS XRPD
Procedure: Approximately, 10 mg of sample was placed into a mesh vapor sorption balance pan and loaded into a DVS-1 dynamic vapor sorption balance by Surface Measurement Systems. The sample was subjected to a ramping profile from 40-90% relative humidity (RH) at 10% increments, maintaining the sample at each step until a stable weight had been achieved (99.5% step completion). After completion of the sorption cycle, the sample was dried using the same procedure to 0% RH and then a second sorption cycle back to 40% RH. The weight change during the sorption/desorption cycles were plotted, allowing for the hygroscopic nature of the sample to be determined. XRPD analysis was then carried out on any solid retained.

[6] = Gravimetric vapor sorption (GVS); conditions: for Crystalline form by XRPD after exposure to GVS humidity conditions: post-GVS XRPD
Procedure: Approximately 10-20 mg of sample was placed into a mesh vapor sorption balance pan and loaded into an IGASorp Moisture Sorption Analyzer balance by Hiden Analytical. […] After completion of the sorption cycle, the sample was dried using the same procedure to 0% RH, and finally taken back to the starting point of 40% RH. The weight change during the sorption/desorption cycles were plotted, allowing for the hygroscopic nature of the sample to be determined.

[7] = Approximate solvent solubility of amorphous Compound 1 free base by solvent addition (Example 1); conditions: for solubility: organic solvent or mixture, thermodynamic from solid, read-out: Approx. Solubility
Procedure: A solid Compound 1 was obtained as follows. A […] of solution containing about 330 mg of Compound 1 in warm 1,4-dioxane was divided between 33, 2 mL glass vials (1.5 mL in each). The solutions were frozen and freeze-dried by lyophilization overnight. The resulting material was then analyzed by XRPD to confirm mostly amorphous material.
Approximately 10 mg of amorphous Compound 1 was produced in 32×2 mL glass vials from freeze drying and 100 μL of the appropriate solvent system was added to the appropriate vial. Between each addition, the mixture was checked for dissolution and if no dissolution was apparent, the mixture was heated to about 40° C. and checked again. This procedure was continued until dissolution was observed or until 2 mL had been added (to the compound concentration of <5 mg/mL).

[8] = medium water activity (aw=0.776)

Compound: C[C@@H]1CCc2ncc(F)cc2[C@H]2CCCN2c2ccn3ncc(c3n2)C(=O)N1.O=S(=O)(O)c1ccccc1 [Compound 1 besylate]
- 1-week stability test: change to form (XRPD) ([1]; 40° C./75% RH): appears to be a mixture of besylate salt and something else
- 1-week stability test: change in purity (UPLC) ([1]; 80° C.): no change to purity
- 1-week stability test: change to form (XRPD) ([1]; 80° C.): no change to form
- 1-week stability test: change in purity (UPLC) ([1]; ambient light): no change to purity
- 1-week stability test: change to form (XRPD) ([1]; ambient light): no change to form
- Thermodynamic solubility in words ([2]; pH 1): highly soluble
- Solid recovered from thermodynamic solubility slurry (XRPD) ([2]; pH 4.5): an unknown form
- Thermodynamic solubility in words ([2]; pH 4.5): moderately soluble
- Solid recovered from thermodynamic solubility slurry (XRPD) ([2]; pH 6.8): poorly crystalline free base
- Thermodynamic solubility in words ([2]; pH 6.8): low solubility
- Solid recovered from thermodynamic solubility slurry (XRPD) ([2]; unbuffered water): poorly crystalline free base
- Thermodynamic solubility in words ([2]; unbuffered water): moderately soluble
- Hydration study: recovered solid by XRPD ([3]; high water activity (aw=0.919)): poorly crystalline besylate salt
- Hydration study: recovered solid by XRPD ([3]; low water activity (aw=0.281)): poorly crystalline besylate salt
- Salt disproportionation: recovered material by XRPD [4]: poorly crystalline free base
- Hygroscopicity, mass uptake by DVS [5]: about 0.7%
- Crystalline form by XRPD after exposure to DVS humidity conditions [5]: no changes in crystalline form

Compound: C[C@@H]1CCc2ncc(F)cc2[C@H]2CCCN2c2ccn3ncc(c3n2)C(=O)N1.O=C(O)CC(O)(CC(=O)O)C(=O)O [Compound 1 citrate]
- 1-week stability test: change in purity (UPLC) ([1]; 40° C./75% RH): no change to purity
- 1-week stability test: change to form (XRPD) ([1]; 40° C./75% RH): no change to form
- 1-week stability test: change in purity (UPLC) ([1]; 80° C.): no change to purity
- 1-week stability test: change to form (XRPD) ([1]; 80° C.): no change to form
- 1-week stability test: change in purity (UPLC) ([1]; ambient light): no change to purity
- 1-week stability test: change to form (XRPD) ([1]; ambient light): no change to form
- Solid recovered from thermodynamic solubility slurry (XRPD) ([2]; pH 1): poorly crystalline solids
- Thermodynamic solubility in words ([2]; pH 1): high solubility
- Solid recovered from thermodynamic solubility slurry (XRPD) ([2]; pH 4.5): Compound 1 citrate
- Thermodynamic solubility in words ([2]; pH 4.5): lower solubility
- Solid recovered from thermodynamic solubility slurry (XRPD) ([2]; pH 6.8): poorly crystalline free base
- Thermodynamic solubility in words ([2]; pH 6.8): lower solubility
- Solid recovered from thermodynamic solubility slurry (XRPD) ([2]; unbuffered water): Compound 1 citrate
- Thermodynamic solubility in words ([2]; unbuffered water): highly soluble
- Hydration study: recovered solid by XRPD ([3]; high water activity (aw=0.919)): poorly crystalline citrate salt
- Hydration study: recovered solid by XRPD ([3]; low water activity (aw=0.281)): poorly crystalline citrate salt
- Hydration study: recovered solid by XRPD [3, 8]: unknown form
- Salt disproportionation: recovered material by XRPD [4]: poorly crystalline citrate salt
- Crystalline form by XRPD after exposure to DVS humidity conditions [5]: no changes in crystalline form

Compound: CS(=O)(=O)O.C[C@@H]1CCc2ncc(F)cc2[C@H]2CCCN2c2ccn3ncc(c3n2)C(=O)N1 [Compound 1 mesylate]
- 1-week stability test: change in purity (UPLC) ([1]; 40° C./75% RH): no change to purity
- 1-week stability test: change in purity (UPLC) ([1]; 80° C.): no change to purity
- 1-week stability test: change in purity (UPLC) ([1]; ambient light): no change to purity
- Thermodynamic solubility in words ([2]; pH 1): moderately soluble
- Solid recovered from thermodynamic solubility slurry (XRPD) ([2]; pH 4.5): mesylate salt
- Thermodynamic solubility in words ([2]; pH 4.5): moderately soluble
- Solid recovered from thermodynamic solubility slurry (XRPD) ([2]; pH 6.8): free base
- Thermodynamic solubility in words ([2]; pH 6.8): low solubility
- Solid recovered from thermodynamic solubility slurry (XRPD) ([2]; unbuffered water): free base
- Thermodynamic solubility in words ([2]; unbuffered water): moderately soluble
- Hygroscopicity, mass uptake by GVS ([6]; at 90% RH): about 32%
- Crystalline form by XRPD after exposure to GVS humidity conditions [6]: desolvate and become the mesylate form seen in the salt screen
- Hydration study: recovered solid by XRPD ([3]; high water activity (aw=0.919)): free base
- Hydration study: recovered solid by XRPD ([3]; low water activity (aw=0.281)): a mixture of free base and salt
- Hydration study: recovered solid by XRPD [3, 8]: mesylate salt
- Salt disproportionation: recovered material by XRPD [4]: no change to form

Compound: C[C@@H]1CCc2ncc(F)cc2[C@H]2CCCN2c2ccn3ncc(c3n2)C(=O)N1 [Compound 1, (6R,15R)-9-fluoro-15-methyl-2,11,16,20,21,24-hexaazapentacyclo[16.5.2.0^2,6.0^7,12.0^21,25]pentacosa-1(24),7,9,11,18(25),19,22-heptaen-17-one]
- 1-week stability test: change in purity (UPLC) ([1]; 40° C./75% RH): no change in purity
- 1-week stability test: change to form (XRPD) ([1]; 40° C./75% RH): no change to form
- 1-week stability test: change in purity (UPLC) ([1]; 80° C.): no change in purity
- 1-week stability test: change to form (XRPD) ([1]; 80° C.): no change to form
- Average purity after 1-week stability test (UPLC) ([1]; 80° C. test): 99.3%
- 1-week stability test: change in purity (UPLC) ([1]; ambient light): no change in purity
- 1-week stability test: change to form (XRPD) ([1]; ambient light): no change to form
- Average purity after 1-week stability test (UPLC) ([1]; ambient light test): 99.2%
- Average purity after 1-week stability test (UPLC) ([1]; relative humidity test (40° C./75% RH)): 99.2%
- Crystalline form by XRPD after exposure to GVS humidity conditions [6]: no changes to form or crystallinity; also recorded: no changes in crystalline form
- solubility ([7]; 1,2-Dimethoxyethane): 8.3 mg/mL (≈ 21.8 mM)
- solubility ([7]; 1,4-Dioxane): 8.3 mg/mL (≈ 21.8 mM)
- solubility ([7]; 1-butanol): 17 mg/mL (≈ 44.7 mM)
- solubility ([7]; 2-Ethoxy ethanol): 50 mg/mL (≈ 131 mM)
- solubility ([7]; 2-Propanol): 14.3 mg/mL (≈ 37.6 mM)
- solubility ([7]; 2-butanone): 11.1 mg/mL (≈ 29.2 mM)
- solubility ([7]; Acetone): 11.1 mg/mL (≈ 29.2 mM)
- solubility ([7]; Acetonitrile): 12.5 mg/mL (≈ 32.9 mM)
- solubility ([7]; Dimethylsulfoxide): 50 mg/mL (≈ 131 mM)
- solubility ([7]; Ethanol): 20 mg/mL (≈ 52.6 mM)
- solubility ([7]; Methanol): 50 mg/mL (≈ 131 mM)
- solubility ([7]; Methylisobutyl ketone): 6.25 mg/mL (≈ 16.4 mM)
- solubility ([7]; Tetrahydrofuran, 40 °C): 20 mg/mL (≈ 52.6 mM)
- solubility ([7]; anisole): 11.1 mg/mL (≈ 29.2 mM)
- Solvent solubility in words ([7]; non-polar solvents such as toluene and 1,4-dioxane): low solubility
- solubility ([7]; Diglyme (bis(2-methoxyethyl ether))): 8.3 mg/mL (≈ 21.8 mM)
- Solvent solubility in words ([7]; polar aprotic solvents such as acetone, ethyl acetate and acetonitrile): medium solubility
- Solvent solubility in words ([7]; polar solvents such as DMSO, DMF and protic solvents such as methanol): high solubility
- Hygroscopicity, mass uptake by DVS [5]: about 0.7%
- Crystalline form by XRPD after exposure to DVS humidity conditions [5]: no change in crystalline form
